Assays:
Jurkat cells [1] = experiment: Fluorescence microscope of live Jurkat cells; assay type: cell-based; conditions: 37° C.; for Cellular uptake seen in fluorescence microscopy images: 7 μM peptide, 15 minutes, fetal bovine serum, trypsin 5 minutes, FIG. 1; for Cellular uptake seen in fluorescence microscope images: 30 μM peptide, 5% CO2, 15 minutes, trypsinized 10 minutes, FIG. 7
Experimental: […] After incubation, the suspension was centrifuged at 2200 rpm. The cells were washed with phosphate buffered saline (137 mM NaCl, 2.7 mM KCl, 10 mM sodium phosphate dibasic, 2 mM potassium phosphate monobasic, pH 7.4) twice to remove extracellular peptide. […] Finally, cells were resuspended in 500 μL PBS containing 1 μg/mL propidium iodide. The cells were then examined by a fluorescence microscope (Olympus IX71) (492/517 nm; excitation/observation).

Jurkat cells [2] = experiment: Cellular uptake assay by flow cytometry; assay type: cell-based; conditions: for Mean fluorescence intensity: Jurkat cells
Experimental: All apparatuses were sterilized by autoclave sterilizer, and the experimental surfaces were wiped with 70% ethanol. All operations were performed in a laminar flow hood. The number of cells was determined by a hemacytometer. There were 9 squares with 1.0 mm^2 area and 0.1 mm depth in the hemacytometer. The number of cells in the four corner squares was counted and averaged. The average was multiplied by 10^4 to obtain the number of cells in a 1 mL suspension. The cellular uptake experiments were performed using 8×10^5 cells. […] The cells were then washed with PBS (2 g/L KCl, 2 g/L KH2PO4, 80 g/L NaCl, 11.5 g/L Na2PO4) (2×400 μL) to remove the fetal bovine serum which might interfere with the proteolytic activity of trypsin. The cells were then incubated with 0.05% trypsin/EDTA in PBS for 5 minutes to remove the peptides which adhered to the cell surface rather than entry to the cell. The cells were washed with PBS (2×400 μL). The cells were then resuspended in 500λ PBS and transferred into the flow tube. The cells were terminated by adding Triton-X 100 to give the dead control group. Propidium iodide (PI) was added to all samples to stain the dead cells but should not stain the live cells. Fluorescence analysis for the Jurkat cells was performed with a flow cytometer (FACScan, Becton Dickinson Bioscience). The voltage of the photomultiplier tube for forward scatter, side scatter and propidium iodide was set to 270, 470, and 350, respectively. Live cells containing appropriate forward scatter and side scatter values were selected and gated as the P1 region for normal and live cells in the live control group. The minimum propidium iodide fluorescence intensity for the dead cells treated with propidium iodide in the P1 region was set as the threshold value for dead cells. In other words, cells with propidium iodide fluorescence below the threshold value would be deemed live cells. The fluorescence of 6-carboxyfluorescein was considered when the cell morphology was in the P1 region and the propidium iodide fluorescence intensity was lower than the threshold value. The 6-carboxyfluorescein fluorescence intensity was acquired for 10,000 events at room temperature. The data presented are the mean fluorescence intensity for the 10,000 cells. Each experiment was independently repeated at least three times.
Cellular uptake experiments were performed on Jurkat cells, because these cells belonged to a CD4+ helper T cell cancer cell line which was the target of HIV. Jurkat cells were incubated separately with various concentration (7, 30, 60, 120 μM) of Flu-XaaTat for 15 minutes at 37° C. in the presence of fetal bovine serum, and then treated with trypsin to remove cell-surface bound peptide.

HIV TAR RNA [3] = experiment: Fluorescence anisotropy binding of Tat peptides to fluorescein-labeled TAR RNA; conditions: Table 2; read-out: KD, binding affinity of Tat-peptide and TAR RNA by fluorescence anisotropy assay
Experimental: The binding affinity of XaaTat peptides (Xaa=Agh, Arg and Agb) for TAR RNA was measured by fluorescence anisotropy using a Varian Cary Eclipse fluorescence spectrophotometer. The anisotropy (r) was calculated using the following equation: […]
where Ivv, Ivh, Ihh, Ihv are the fluorescence intensities with the excitation polarizer and emission polarizer is oriented perpendicular (Ivh and Ihv) and parallel (Ivv and Ihh) to the direction of the polarized excitation. The fluorescein-labeled TAR RNA (F-TAR-RNA) was excited at 490 nm and the polarized emissions were monitored at 512 nm. The slits were set at 10 nm for both excitation and emission. The integration time was 20 seconds. All data were measured in a Sub-Micro (Starna Cell, Inc.) with a starting volume of 160 μL. Each addition (1 μL) of XaaTat was equilibrated for two minutes before the fluorescence signal was recorded. All experiments were performed at room temperature in TKT buffer (TKT: 50 mM Tris-HCl, pH 7.4, 20 mM KCl and 0.02% Tween20). The initial concentration of F-TAR-RNA was 25 nM. The TKT solution and peptide stock solution were both equilibrated at room temperature more than 20 minutes before the experiment. The experiment was repeated three times independently. For every single point, three measurements were performed and the average value was used for deriving the apparent (apparent KD). The apparent for the peptide-RNA complex was derived by fitting the data assuming a 1:1 peptide-RNA stoichiometry. The fitting was performed using Kaleidagraph 3.52. (Synergy Software, CA).

HIV TAR RNA [4] = experiment: Gel shift assay (EMSA) with fluorescein-labeled TAR RNA in the presence of poly(dI-dC); assay type: binding
Experimental: The fluorescein-labeled TAR RNA (F-TAR-RNA) was purchased from Sigma. F-TAR-RNA was dissolved in diethyl pyrocarbonate treated H2O to give a 50 μM solution. Binding assays were performed at room temperature. Peptide and RNA were incubated in pH 7.4 buffer (10 μL) containing Tris-HCl (50 mM), KCl (50 mM), poly-dIdC (10 μg/mL), 2% glycerol, and Triton X-100 (0.05%). The F-TAR-RNA concentration was 100 nM. The samples were analyzed by loading into 12% native polyacrylamide gels in […] and electrophoresis was performed with 140 V at room temperature. Dried gels were scanned by the Typhoon TRIO+ Variable Mode Imager. Bands corresponding to the free and bound RNA were quantified using ImageQuant software. The apparent dissociation constants were globally derived from the quantified data assuming a 1:1 binding stoichiometry.

Jurkat cells [5] = experiment: MTT assay for determining cell survival; assay type: cell-based; conditions: 7 μM and 30 μM peptide, 4 hours, 37° C., FIG. 4
Experimental: The cells were grown to appropriate cell density (roughly 2×10^6 cells/mL) and transferred into new media one day before performing the experiment. For each assay, 8×10^5 cells as determined by a hemocytometer were added into an eppendorf. The cells were centrifuged at 2200 rpm for 5 minutes. The supernatant was removed by suction. Then 200 μL of 7 μM or 30 μM XaaTat peptide was added. The cells were incubated for 4 hours at 37° C. and then centrifuged at 2200 rpm for 5 minutes. The cells were washed with RPMI medium twice, and then 200 μL of 0.5 mg/mL MTT in serum free RPMI buffer was added and incubated at 37° C. for 3.5 hours. The cells were then centrifuged at 4000 rpm for 5 minutes. The supernatant was then transferred to two wells (100 μL each) of a 96-well plate. Then 400 μL DMSO was added to the cells in the assaying eppendorf. The eppendorf was then vortexed for 5 minutes to solubilize the MTT purple crystals, and centrifuged at 2200 rpm for 5 minutes. Then the supernatant was transferred to 4 wells (100 μL each) of the 96-well plate for analysis. The absorbance at 570 was determined for each well using a microplate reader with the absorbance at 655 nm used for background correction. A standard curve was generated using different number of cells (8×10^5, 4×10^5 and 2×10^5). The absorbance for each sample for each peptide at each concentration was then correlated to the number of live cells based on the standard curve.

[6] = in the presence of poly(dI-dC) at 25° C., Table 3, read-out: KD, dissociation constant of Tat-peptide and TAR RNA by gel shift assay

Compound | Mean fluorescence intensity (Jurkat cells [2]; 30 μM peptide) | Mean fluorescence intensity (Jurkat cells [2]; 60 μM peptide) | Mean fluorescence intensity (Jurkat cells [2]; 90 μM peptide) | Mean fluorescence intensity (Jurkat cells [2]; 120 μM peptide) | Kd (HIV TAR RNA [3]) | Kd (HIV TAR RNA [4]; [6]) | Cellular uptake seen in fluorescence microscope images (Jurkat cells [1]) | further results
6-carboxyfluorescein-βAla-Tyr-Gly-Agh-Lys-Lys-Agh-Agh-Gln-Agh-Agh-Agh-NH2 [Flu-AghTat] | – | – | – | – | – | – | – | Cellular uptake seen in fluorescence microscopy images (Jurkat cells [1]): Obvious cellular uptake; Cellular uptake compared to Flu-ArgTat (Jurkat cells [2]; concentrations higher than 7 μM, FIG. 2B): more cellular uptake
6-carboxyfluorescein-βAla-Tyr-Gly-Arg-Lys-Lys-Arg-Arg-Gln-Arg-Arg-Arg-NH2 [Flu-ArgTat, reference compound] | 2170 ± 1692 a.u. | 5258 ± 2006 a.u. | 7042 ± 1475 a.u. | 8628 ± 3585 a.u. | – | – | – | Cellular uptake seen in fluorescence microscopy images (Jurkat cells [1]): Obvious cellular uptake
Ac-Tyr-Gly-Cit-Lys-Lys-Arg-Arg-Gln-Arg-Arg-Arg-NH2 [Tat-Cit49] | – | – | – | – | 94 ± 13 nM | 138 ± 21 nM | – | –
6CF-βAla-Tyr-Gly-Cit-Lys-Lys-Arg-Arg-Gln-Arg-Arg-Arg-NH2 [6CF-Tat-Cit49] | 1791 ± 555 a.u. | 6452 ± 740 a.u. | 13284 ± 1441 a.u. | 15784 ± 1567 a.u. | – | – | significant cellular uptake | –
CC(=O)N[C@@H](Cc1ccc(O)cc1)C(=O)NCC(=O)N[C@@H](CCCCNC(=N)N)C(=O)N[C@@H](CCCCN)C(=O)N[C@@H](CCCCN)C(=O)N[C@@H](CCCCNC(=N)N)C(=O)N[C@@H](CCCCNC(=N)N)C(=O)N[C@@H](CCC(N)=O)C(=O)N[C@@H](CCCCNC(=N)N)C(=O)N[C@@H](CCCCNC(=N)N)C(=O)N[C@@H](CCCCNC(=N)N)C(N)=O [AghTat, Ac-Tyr-Gly-Agh-Lys-Lys-Agh-Agh-Gln-Agh-Agh-Agh-NH2] | – | – | – | – | – | – | – | Cytotoxicity (cell survival) (Jurkat cells [5]): minimal cytotoxicity
6CF-βAla-Tyr-Gly-Arg-Lys-Lys-Arg-Arg-Gln-Arg-Arg-Cit-NH2 [6CF-Tat-Cit57] | 465 ± 72 a.u. | 1696 ± 167 a.u. | 4031 ± 377 a.u. | 4964 ± 811 a.u. | – | – | significant cellular uptake | –
6CF-βAla-Tyr-Gly-Arg-Lys-Lys-Arg-Arg-Gln-Cit-Arg-Arg-NH2 [6CF-Tat-Cit55] | 793 ± 267 a.u. | 5750 ± 134 a.u. | 9090 ± 707 a.u. | 10152 ± 787 a.u. | – | – | significant cellular uptake | –
Ac-Tyr-Gly-Arg-Lys-Lys-Arg-Arg-Gln-Arg-Arg-Cit-NH2 [Tat-Cit57] | – | – | – | – | 49 ± 6 nM | 146 ± 30 nM | – | –
6CF-βAla-Tyr-Gly-Arg-Lys-Lys-Arg-Arg-Gln-Arg-Cit-Arg-NH2 [6CF-Tat-Cit56] | 429 ± 95 a.u. | 2305 ± 249 a.u. | 6094 ± 792 a.u. | 11617 ± 1339 a.u. | – | – | significant cellular uptake | –
Ac-Tyr-Gly-Arg-Lys-Lys-Arg-Arg-Gln-Arg-Arg-Agp-NH2 [Ac-Agp57-Tat-NH2] | – | – | – | – | – | – | – | Kd (HIV TAR RNA [4]; in the presence of 10 μg/mL poly(dI-dC), FIG. 9, read-out: KD of peptide and TAR-RNA by gel shift assay): 56 ± 12 nM
Ac-Tyr-Gly-Arg-Lys-Lys-Arg-Cit-Gln-Arg-Arg-Arg-NH2 [Tat-Cit53] | – | – | – | – | 102 ± 11 nM | 344 ± 73 nM | – | –
Ac-Tyr-Gly-Arg-Lys-Lys-Arg-Arg-Gln-Arg-Cit-Arg-NH2 [Tat-Cit56] | – | – | – | – | 55 ± 9 nM | 164 ± 40 nM | – | –
Ac-Tyr-Gly-Arg-Lys-Lys-Cit-Arg-Gln-Arg-Arg-Arg-NH2 [Tat-Cit52] | – | – | – | – | 116 ± 17 nM | 235 ± 45 nM | – | –
6CF-βAla-Tyr-Gly-Arg-Lys-Lys-Cit-Arg-Gln-Arg-Arg-Arg-NH2 [6CF-Tat-Cit52] | 1221 ± 116 a.u. | 5332 ± 612 a.u. | 10040 ± 726 a.u. | 12378 ± 972 a.u. | – | – | significant cellular uptake | –
Ac-Tyr-Gly-Arg-Lys-Lys-Arg-Arg-Gln-Cit-Arg-Arg-NH2 [Tat-Cit55] | – | – | – | – | 99 ± 14 nM | 279 ± 74 nM | – | –
6-carboxyfluorescein-βAla-Tyr-Gly-Agb-Lys-Lys-Agb-Agb-Gln-Agb-Agb-Agb-NH2 [Flu-AgbTat] | – | – | – | – | – | – | – | Cellular uptake seen in fluorescence microscopy images (Jurkat cells [1]): Obvious cellular uptake; Uptake into cells compared to Flu-ArgTat and Flu-AghTat (Jurkat cells [2]; 7 μM peptide, 15 minutes, 37° C., fetal bovine serum, FIG. 2A): 3 times
6CF-βAla-Tyr-Gly-Arg-Lys-Lys-Arg-Cit-Gln-Arg-Arg-Arg-NH2 [6CF-Tat-Cit53] | 429 ± 19 a.u. | 3417 ± 288 a.u. | 6499 ± 109 a.u. | 10861 ± 1096 a.u. | – | – | significant cellular uptake | –
